This is an account of results in US20150147350A1, “Method Of Treating Cancer With MEGEA3 Immunotherapeutic With BRAF Inhibitor And/Or MEK Inhibitor” (GlaxoSmithKline LLC, priority 2011, published 2015).

This data set concerns systemic immunity. Nature of the data set: Peripheral blood immune-monitoring in cancer patients treated with BRAF inhibitor. On the procedure: 13 patients with tumors carrying a BRAF mutation who underwent treatment with GSK2118436 (the compound of formula (I)), a V600 mutant BRAF specific inhibitor were studied to assess effects of mutant BRAF inhibition on systemic immunity. Peripheral blood immune-monitoring was carried out before and following one or two 28-day cycles of treatment.

For the molecule `CC(C)(C)c1nc(-c2cccc(NS(=O)(=O)c3c(F)cccc3F)c2F)c(-c2ccnc(N)n2)s1` [GSK2118436, N-{3-[5-(2-Amino-4-pyrimidinyl)-2-(1,1-dimethylethyl)-1,3-thiazol-4-yl]-2-fluorophenyl}-2,6-difluorobenzenesulfonamide], the “impact on most immune parameters tested (serum cytokine levels, peripheral blood cell counts, leukocyte subset frequencies, memory CD4+ and CD8+ T-cell recall responses)” value (13 patients, before and following one or two 28-day cycles of treatment) is “no detectable impact”. Also, the “serum TNF-α over the course of treatment” value (13 patients, one or two 28-day cycles of treatment) is recorded as “slight increase”. Further, under “patients, conclusion of the study”, the “negative impact on existing systemic immunity or the de novo generation of tumor-specific T cells” value is “no detectable negative impact”. Moreover, for the setting “three of the four human leukocyte antigen-A2-positive patients, following BRAF(V600) inhibitor therapy”, the “circulating tumor antigen-specific CD8+ T cells” value is recorded as “modest increase”.
